Here are results for three molecules from patent publication US12161089B2, “Parasiticidal collar comprising isoxazoline compounds” (Boehringer Ingelheim Animal Health USA Inc., priority 2020, dated 2024).

One data set relates to Ctenocephalides felis. Put plainly: In-vitro flea exposure effectiveness (contact with collar strips or treated filter papers). The settings on record: filter paper 21 cm^2 loaded with 500 μL of 10 mg/mL in acetone, 24 (±1) hours; for Geometric Mean No. Live Fleas: 3 vials; for Percentage Reduction Live Fleas: versus acetone only control; for Vial 1 # Live Fleas / Vial 2 # Live Fleas / Vial 3 # Live Fleas: approximately 20 fleas. As for the experimental part: The in-vitro susceptibility of Ctenocephalides felis exposed to treated filter papers and to external device compositions (antiparasitic collar) containing isoxazoline active agents (S)-Ia, (S)-Id and (Ia) was determined, wherein the collars comprise a polyvinyl chloride (PVC) matrix or a polybutylene succinate (PBS) matrix.
To determine the in-vitro susceptibility of Ctenocephalides felis exposed to treated filter papers or to the collars compositions comprising the isoxazoline active agent, approximately 20 fleas were transferred to vials containing either the collars or filter papers in accordance with the test groups outlined in Table 3. On Day 0, approximately 20 fleas were placed in 27×55 mm, 5 dram glass vials containing the collars comprising the active agent as outlined in Table 3 or in 60 mm×40 mm glass vials containing treated filter papers. The filter papers tested in groups 9-12 were loaded with 500 μL of a 10 mg/mL solution containing the active agent dissolved in acetone. […] Test vials were placed in an environmental chamber at approximately 28° C. and approximately 80% RH.
The number of dead fleas in each vial were counted on Day 1 at 24 (±1) hours after initial exposure. Fleas were counted as dead if they were not able to maintain an upright posture.

Data set [1] is described as follows: Plasma drug concentrations in dogs wearing PVC based isoxazoline collars. It counts as in vivo, dog. The following applies: 11% active, FIG. 5. Here is the method:
PK data: Blood samples from all the dogs were taken periodically and drug concentrations in the plasma were analyzed (depicted in FIG. 5). […] In other words, these compounds are likely acting by a systemic mechanism, even though they are applied in a topical collar dosage form. These PK data appear also to correlate with the flea and tick efficacy data in Table 6 and 7 (e.g., compound (S)-Ia is the best, (S)-Id is the second, and Ia the third).

A short description of data set [2]: Isoxazoline compounds in dog hair. The format is in vivo. The settings on record: hair collected on Day 110 from 5 areas, PVC collars, FIG. 6. The source says: Hair samples from each dog were collected on Day 110 from 5 different areas: (1) central thorax, (2) lower back/caudal region, (3) right thorax, (4) left thorax, and […] top of neck/base of skull above collar site. Suitable bioanalytical methods were used for analysis of the three isoxazoline compounds in dog hair. […] Results for the other two isoxazoline compounds Ia and (S)-Ia are very similar.

For the molecule `O=C(CNC(=O)c1ccc(C2=NOC(c3cc(Cl)cc(C(F)(F)F)c3)(C(F)(F)F)C2)c2ccccc12)NCC(F)(F)F` (centres unmarked) [(Ia), 4-[5-[3-chloro-5-(trifluoromethyl)phenyl]-4,5-dihydro-5-(trifluoromethyl)-3-isoxazolyl]-N-[2-oxo-2-[(2,2,2-trifluoroethyl)amino]ethyl]-1-naphthalanecarboxamide], in the data set with Ctenocephalides felis, the “Geometric Mean No. Live Fleas” value turned out to be 19.6, the “Percentage Reduction Live Fleas” value came out at 3.3%, the “Vial 1 # Live Fleas” value stood at 19 and the “Vial 2 # Live Fleas” value was determined as 21. Also, the “Vial 3 # Live Fleas” value in the data set on Ctenocephalides felis turned out to be 19. In addition, the “PK data, order of the compounds (correlating with flea and tick efficacy)” value (from here on “PK data, order of the compounds”) in data set [1] is recorded as “the third”. For the same molecule, the “Level of the drug in dog hair, top of the neck (collar site) compared with other areas” value (“Level of the drug … compared with other areas” below) in data set [2] is “very similar”.
As to `O=C(CNC(=O)c1ccc(C2=NO[C@@](c3cc(Cl)c(F)c(C(F)(F)F)c3)(C(F)(F)F)C2)c2ccccc12)NCC(F)(F)F` [(S)-Id], the “PK data, order of the compounds” value in data set [1] is listed as “the second”. Besides, in data set [2], the “Isoxazoline compound levels in hair throughout bodies of the dogs” value is given as “detectable” and the “Level of the drug … compared with other areas” value was “highest level of the drug”.
On to `O=C(CNC(=O)c1ccc(C2=NO[C@@](c3cc(Cl)cc(C(F)(F)F)c3)(C(F)(F)F)C2)c2ccccc12)NCC(F)(F)F` [(S)-Ia], for which, in the data set with Ctenocephalides felis, the “Geometric Mean No. Live Fleas” value was determined as 19.0, the “Percentage Reduction Live Fleas” value came out at 6.5%, the “Vial 1 # Live Fleas” value is 19 and the “Vial 2 # Live Fleas” value is on record as 20. In the data set with Ctenocephalides felis, the “Vial 3 # Live Fleas” value is listed as 18. Further, the “PK data, order of the compounds” value in data set [1] was “the best”. In data set [2], the “Level of the drug … compared with other areas” value is recorded as “very similar”.
